Experimental data taken from patent publication US7345033B2, “Carbamoyl-and thiocarbamoyl-phosphonates and pharmaceutical compositions comprising them” (Yissum Research Development Company of the Hebrew …, priority 2003, dated 2008).
Read-outs that look alike come from different tables or passages of the source.

Key:
Endothelial cells = experiment: Endothelial cell capillary tube formation; format: cell-based; conditions: read-out: Capillary Formation Inhibition % At 50 μM
Description: Endothelial Cell Capillary Tube Formation
Some of the compounds were examined as to their potency to inhibit capillary formation, which is an in vitro model of angiogenesis, an essential step in the development of primary tumor and metastatic lesions. Endothelial cell migration to the newly formed tumor is the initial phase of angiogenesis, and is dependent on MMP expression. By using this assay that measures endothelial cell tube formation, the effects of some carbamoylphosphonates on angiogenesis at concentrations ranging from 100-5 μM were evaluated.
Description of the Endothelial Cell Capillary Tube Formation Experiment
Endothelial cells are harvested by 1 mM EDTA, and added to a Matrigel layer in a 24 well plate at 50,000 cells per well. After attachment, culture media (1 ml) is added and the plate is incubated as a monolayer culture. The plates are analyzed hourly using Hoffinan optics. This assay is used to evaluate inhibitory factors or stimulatory factors on capillary like structure formation, which may be added into the culture media.

murine melanoma = experiment: Tumor growth and metastasis in vivo, murine melanoma model; design: species or system mice; conditions: for inhibition in vivo at 50 mg/kg: Mus musculus, 504 h; for oral bioavailability: values equal the PO % reduction in murine melanoma of Table 1
Description: Tumor Growth and Metastasis in Animal Models—in vivo Test
The abilities of the novel carbamoylphosphonates to inhibit the formation of metastatic lesions in vivo were examined in the murine melanoma model both by intraperitoneal (IP) and peroral (PO) administration. […] This is especially important, since oral administration is the most convenient one for the patient, especially for long term chronic treatments such as those envisaged for drugs that are the subject of this application.

recombinant MMP-2 = target: T1, recombinant MMP-2 (Homo sapiens, UniProt P08253); experiment: MMP inhibitory potency in vitro, succinylated-gelatin colorimetric assay; format: biochemical; conditions: for times more active on MMP-2 than its analog or isomer: 11 vs 6, 9 vs 9a, 10 vs 10a, 11 vs 11a
T1 construct: purchased
T1 sequence (P08253 110-660): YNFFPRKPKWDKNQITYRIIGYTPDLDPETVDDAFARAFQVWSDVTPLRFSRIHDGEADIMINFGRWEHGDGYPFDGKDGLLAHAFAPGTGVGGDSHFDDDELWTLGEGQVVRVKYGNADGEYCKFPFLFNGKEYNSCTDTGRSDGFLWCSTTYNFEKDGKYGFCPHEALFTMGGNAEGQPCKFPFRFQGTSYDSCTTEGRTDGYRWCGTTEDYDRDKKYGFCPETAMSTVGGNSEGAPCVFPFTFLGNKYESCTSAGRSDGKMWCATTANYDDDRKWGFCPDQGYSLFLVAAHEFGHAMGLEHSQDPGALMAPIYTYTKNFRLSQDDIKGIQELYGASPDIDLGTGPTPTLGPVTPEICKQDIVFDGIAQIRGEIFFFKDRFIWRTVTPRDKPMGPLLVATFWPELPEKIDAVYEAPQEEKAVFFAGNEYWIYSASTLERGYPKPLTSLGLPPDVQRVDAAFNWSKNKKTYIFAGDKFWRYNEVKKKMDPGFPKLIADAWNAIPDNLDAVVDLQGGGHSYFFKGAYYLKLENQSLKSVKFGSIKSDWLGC
Experimental: (§1) Determination of MMP Inhibitory Potency (IC50 Values) in vitro
(§2) The commercially available recombinant MMP-2 and MMP-9 enzymes were incubated with succinylated-gelatin at four different concentrations for 3 h. The examined compounds were added at four to six different concentrations to the recombinant enzymes and the inhibitory potencies were expressed in a colorimetric change measured by an ELISA reader. The inhibitory activity (IC50) was calculated from the kinetic data obtained.

[1] = Acute in vivo toxicity in healthy mice; conditions: daily for two weeks at 50, 250 and 500 mg/kg
Description: Determination of Acute in vivo Toxicity of Representative Carbamoylphosphonates

cancer cells = experiment: Matrigel chemoinvasion assay (Boyden chambers); format: cell-based; conditions: 6 h, read-out: Chemoinvasion % inhibition at 50 μM
Description: Matrigel Chemoinvasion Assay
This assay measures in vitro the potency of the compounds to repress the invasiveness of cancer cells, by inhibiting the MMPs produced by them. The assay uses a reconstituted basement membrane preparation, which is similar to the natural basement membranes that the tumor cells have to cross, in order to disseminate. The compounds examined have been added to the invasion chambers at various concentrations, and the resulted invasion was compared to untreated preparations.
Description of the of the Matrigel Chemoinvasion Experiment
a) The chemoinvasion assays were performed in Boyden chambers. Matrigel (25 μg) was dried on a polycarbonated filter (PVP free, Nucleopore). Fibroblast conditioned medium (obtained from confluent NIH-3T3 cells cultured in serum free DMEM) is used as the chemoattractant. […] The chambers were incubated in a humidified incubator at 37° C. in 5% CO2/95% air atmosphere for 6 h. The cells, which traversed the Matrigel layer and attached to the lower surface of the filter, were stained with Diff Quick (American Scientific Products) and counted.
The various compounds were examined as potential inhibitors at three concentrations: 100 μM, 50 μM and 10 μM.

MMP-8 = MMP-8 (Homo sapiens, UniProt P22894); experiment: Selectivity towards different MMPs: MMP-8; format: biochemical; conditions: Table 2
Chain of MMP-8 (P22894 101-467, species assumed): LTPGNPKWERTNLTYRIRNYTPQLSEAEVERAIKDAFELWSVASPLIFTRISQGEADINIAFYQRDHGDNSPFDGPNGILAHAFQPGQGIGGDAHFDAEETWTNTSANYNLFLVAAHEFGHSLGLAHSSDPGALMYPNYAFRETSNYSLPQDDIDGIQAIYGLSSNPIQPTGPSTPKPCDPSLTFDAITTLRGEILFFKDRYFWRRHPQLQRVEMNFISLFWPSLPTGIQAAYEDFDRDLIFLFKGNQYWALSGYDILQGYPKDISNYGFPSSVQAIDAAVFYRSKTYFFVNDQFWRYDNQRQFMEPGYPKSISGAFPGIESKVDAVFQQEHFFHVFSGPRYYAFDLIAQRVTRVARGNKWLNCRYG

MMP-1 = target: T2, MMP-1 (Homo sapiens, UniProt P03956); experiment: Selectivity towards different MMPs: MMP-1; format: biochemical; conditions: Table 2
T2 sequence (P03956 100-469): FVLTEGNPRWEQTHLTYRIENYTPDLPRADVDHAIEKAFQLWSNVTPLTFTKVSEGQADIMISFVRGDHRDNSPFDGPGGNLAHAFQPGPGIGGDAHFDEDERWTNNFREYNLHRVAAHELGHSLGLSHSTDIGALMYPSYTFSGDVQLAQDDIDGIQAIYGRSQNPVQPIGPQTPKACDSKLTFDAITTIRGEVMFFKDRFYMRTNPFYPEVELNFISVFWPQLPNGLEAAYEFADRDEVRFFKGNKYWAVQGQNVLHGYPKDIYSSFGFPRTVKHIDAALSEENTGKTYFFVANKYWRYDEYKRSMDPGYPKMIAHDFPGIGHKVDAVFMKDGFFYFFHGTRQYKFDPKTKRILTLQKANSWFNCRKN

MMP-3 = MMP-3 (Homo sapiens, UniProt P08254); experiment: Selectivity towards different MMPs: MMP-3; format: biochemical; conditions: Table 2
Chain of MMP-3 (P08254 100-477, species assumed): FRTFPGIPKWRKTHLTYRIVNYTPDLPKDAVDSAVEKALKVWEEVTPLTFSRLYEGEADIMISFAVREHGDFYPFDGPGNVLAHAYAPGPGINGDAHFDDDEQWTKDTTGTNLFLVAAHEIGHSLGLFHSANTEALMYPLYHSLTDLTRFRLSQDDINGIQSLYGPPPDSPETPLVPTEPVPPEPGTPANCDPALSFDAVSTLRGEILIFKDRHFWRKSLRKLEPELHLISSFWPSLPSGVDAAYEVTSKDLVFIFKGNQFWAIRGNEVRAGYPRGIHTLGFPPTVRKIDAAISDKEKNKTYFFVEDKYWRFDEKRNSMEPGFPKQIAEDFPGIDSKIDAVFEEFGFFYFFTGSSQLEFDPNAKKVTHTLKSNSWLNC

recombinant MMP-9 = target: T3, recombinant MMP-9 (Homo sapiens, UniProt P14780); experiment: MMP inhibitory potency in vitro, succinylated-gelatin colorimetric assay; format: biochemical
T3 construct: purchased
T3 sequence (P14780 94-707, species assumed): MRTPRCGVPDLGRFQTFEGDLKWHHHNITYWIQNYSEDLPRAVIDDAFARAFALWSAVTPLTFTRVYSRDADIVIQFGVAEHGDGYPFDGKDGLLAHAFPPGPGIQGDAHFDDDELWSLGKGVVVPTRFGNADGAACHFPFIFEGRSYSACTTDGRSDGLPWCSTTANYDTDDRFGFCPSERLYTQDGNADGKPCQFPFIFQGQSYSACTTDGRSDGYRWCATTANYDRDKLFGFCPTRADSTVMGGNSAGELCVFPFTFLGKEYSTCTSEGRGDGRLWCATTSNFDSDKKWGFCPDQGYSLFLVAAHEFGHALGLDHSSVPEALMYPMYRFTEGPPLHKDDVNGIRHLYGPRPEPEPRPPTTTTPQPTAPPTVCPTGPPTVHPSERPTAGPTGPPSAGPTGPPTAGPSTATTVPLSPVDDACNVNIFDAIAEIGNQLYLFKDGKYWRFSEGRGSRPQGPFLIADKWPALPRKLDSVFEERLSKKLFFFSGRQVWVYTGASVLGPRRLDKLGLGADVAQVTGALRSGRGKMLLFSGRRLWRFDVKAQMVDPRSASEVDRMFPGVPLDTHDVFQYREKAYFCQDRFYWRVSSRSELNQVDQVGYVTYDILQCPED
Experimental: as §1, §2

[2] = ip, read-out: In vivo murine melanoma % reduction IP
[3] = po, read-out: In vivo murine melanoma % reduction PO

| Compound | inhibition at 50 µM (Endothelial cells) [%] | inhibition in vivo at 50 mg/kg (murine melanoma; [2]) [%] | inhibition in vivo at 50 mg/kg (murine melanoma; [3]) [%] | IC50 (recombinant MMP-2; Table 1, read-out: MMP-2 IC50) [µM] | inhibition at 50 µM (cancer cells) [%] | melting point [°C] | IC50 (MMP-8) [µM] | IC50 (MMP-1) [µM] | IC50 (MMP-3) [µM] | IC50 (recombinant MMP-9) [µM] | IC50 (recombinant MMP-2) [µM] | also measured |
| --- | --- | --- | --- | --- | --- | --- | --- | --- | --- | --- | --- | --- |
| O=C(NC1CCCC1)P(=O)(O)O [Compound 1, CyclopentylNHCOPO3H2] | 70 | 72 | 71 | 0.08 | 65 |  |  |  |  |  |  | toxicity [1]: toxic at 250 mg/kg and 500 mg/kg doses |
| C[C@H](NC(=O)P(=O)(O)O)C1CCCCC1 [Compound 9a] |  |  |  |  |  | 167 to 168 | > 100 | 2 | 0.1 |  |  | IC50 (recombinant MMP-9; Table 2, read-out: MMP-9 IC50): 10 µM; IC50 (recombinant MMP-2; Table 2, read-out: MMP-2 IC50): 1 µM |
| CN(C)CCNC(=O)P(=O)(O)O [Compound 7, Me2N(CH2)2NHCOPO3H2] | 75 | 75 | 29 |  | 66 |  |  |  |  | 20 | 0.03 |  |
| NCCNC(=O)P(=O)(O)O [Compound 6, H2N(CH2)2NHCOPO3H2] | 43 | 57 |  |  | 45 |  |  |  |  | 2 | 0.8 |  |
| O=P(O)(O)C(=S)NC1CCCC1 [Compound 2, CyclopentylNHCSPO3H2] |  | 56 | 70 |  | 70 |  |  |  |  | 50 | 0.07 |  |
| N[C@H]1CCCC[C@@H]1NC(=O)P(=O)(O)O (relative stereo) [Compound 11a, Trans-2-aminocyclohexylcarbamoyl phosphonic acid] |  |  |  |  |  |  | 50 | 90 | 25 | > 100 | 20 |  |
| O=C(N[C@@H]1C[C@@H]2CC[C@H]1C2)P(=O)(O)O (relative stereo) [Compound 10, N-[endo-2-norbornyl]carbamoylphosphonic acid] | 30 | 87 | 80 |  | 25 | 164 to 165 | > 100 | > 100 | > 100 | > 100 | 0.1 | IC50 (recombinant MMP-9; read-out: MMP-9 IC50 μM, Table 2): > 100 µM; times more active on MMP-2 than its analog or isomer (recombinant MMP-2): 150 times |
| O=C(NC1CCCCC1)P(=O)(O)O [Compound 3, CyclohexylNHCOPO3H2] | 50 | 64 |  | 3 | 46 |  |  |  |  |  |  |  |
| O=P(O)(O)C(=S)NCC1CCCCC1 [Compound 8, N-(Cyclohexylmethyl)thiocarbamoylphosphonic acid] | 75 | 80 | 80 |  | 70 |  |  |  |  | 0.015 | 0.015 | oral bioavailability (murine melanoma): improved oral bioavailability |
| O=C(NCC1CCCCC1)P(=O)(O)O [Compound 5, cyclohexylmethyl carbamoylphosphonic acid] | 53 | 69 | 14 | 0.2 | 50 |  |  |  |  |  |  | oral bioavailability (murine melanoma): 14%; IC50 (recombinant MMP-9; Table 1, read-out: MMP-9 IC50): 1 µM |
| O=C(N[C@@H]1C[C@H]2CC[C@@H]1C2)P(=O)(O)O (relative stereo) [Compound 10a, N-[exo-2-norbornyl]carbamoylphosphonic acid] |  |  |  |  |  | 170 to 172 | > 100 | 1 | > 100 | > 100 | 15 |  |
| C[C@@H](NC(=O)P(=O)(O)O)C1CCCCC1 [Compound 9, N—[(R)-1-Cyclohexylethyl]carbamoylphosphonic acid] | 35 |  |  | 0.2 |  | 155 to 156 | > 100 | > 100 | > 100 |  |  | inhibition in vivo at 50 mg/kg (murine melanoma; IP, 50 mg/kg daily for 21 days, lung tumors counted, read-out: In vivo murine melanoma % reduction IP): 68%; inhibition in vivo at 50 mg/kg (murine melanoma; PO, 50 mg/kg daily for 21 days, lung tumors counted, read-out: In vivo murine melanoma % reduction PO): 90%; oral bioavailability (murine melanoma): 90%; IC50 (recombinant MMP-9; Table 1, read-out: MMP-9 IC50): ≥ 100 µM; IC50 (recombinant MMP-9; Table 2, read-out: MMP-9 IC50): > 100 µM; times more active on MMP-2 than its analog or isomer (recombinant MMP-2): five times more active; IC50 (recombinant MMP-2; Table 2, read-out: MMP-2 IC50): 0.2 µM; inhibition at 50 µM (cancer cells; 50 μM, Matrigel): 33% |
| O=P(O)(O)C(=S)NC1CCCCC1 [Compound 4, CyclohexylNHCSPO3H2] | 38 | 68 |  |  | 50 |  |  |  |  | > 100 | 0.1 |  |
